{"source": "patent US20150290201A1", "about": "“TREATMENT OF MUSCULAR DYSTROPHIES AND ASSOCIATED CONDITIONS BY ADMINISTRATION OF MONOAMINE OXIDASE INHIBITORS” (UNIVERSITA DEGLI STUDI DI PADOVA, priority 2011, published 2015)", "key": {"MAO": {"test_system": "MAO", "assay": "MAO activity assay (Amplex Red/HRP, tyramine) on muscle mitochondrial extracts after in vivo treatment", "details": "Col6a1−/− mice, gastrocnemius, pargyline 50 mg/kg/day i.p. for 1 week", "quoted_text": "Muscle cryosections were suspended in PBS and centrifuged at 500 g for 10 min at 4° C. The supernatant was centrifuged at 8000×g for 10 min at 4° C. and the resulting pellet was resuspended in PBS and stored on ice until use. Protein concentration was determined by the Bradford assay (Bio-Rad). MAO activity assay was based on the detection of hydrogen peroxide generated during substrate catabolism in a horseradish peroxidase (HRP) coupled reaction using 10-acetyl-3,7-dihydroxyphenoxazine (Amplex Red reagent, Molecular Probes). The mitochondrial protein extracts (40 mg) were incubated in PBS with 10 mM Amplex Red and 15 mg/ml HRP. […] The fluorescence intensity was recorded at 37° C. using a Perkin Elmer LS-50B fluorimeter at the 544/590 nm excitation/emission wavelengths. Parallel samples were run in the absence of a substrate to take into account the increase in fluorescence not due to MAO activity. […]"}, "Col6a1^−/− mice [1]": {"test_system": "Col6a1^−/− mice", "assay": "DHE staining for ROS detection in muscle cryosections of Col6a1−/− mice", "format": "in vivo", "details": "6-month-old Col6a1−/− mice, pargyline 50 mg/kg/day i.p. 1 week", "protocol": "(§1) Col6a1^−/− mice were backcrossed in the inbred C57BL/6J strain for eight generations as described (Irwin, W. A., et al., (2003) Nat. Genet., 35, 367-371), and data were obtained by comparing Col6a1^−/− mice with their wild-type littermates. Wild-type C57BL/10 mice and mdx (in the C57BL/10 background) were obtained from Charles River and Jackson Laboratories, respectively. Pargyline (50 mg/kg/days) or vehicle (phosphate-buffered saline, PBS) were administered by daily intraperitoneal (i.p.) injection for 7 days in 6-month-old Col6a1^−/− and C57BL/6J male mice or 5-week-old mdx and C57BL/10 male mice. During the treatment, mice were placed in separate cages with a running wheel. At the end of the treatment, mice were sacrificed and muscles were removed and stored in liquid nitrogen until use.\nDHE is oxidized by ROS, forming ethidium bromide, which emits red fluorescence when intercalates with DNA (Benov, L., et al., (1998) Free Radic. Biol. Med., 25, 826-831). […] For the detection of the fluorescence, 568±25 nm excitation and 585 nm long-pass emission filter settings were used. Data were acquired and analyzed using Metamorph software (Universal Imaging). […]"}, "Col6a1^−/− mice [2]": {"test_system": "Col6a1^−/− mice", "assay": "Tm oxidation (DCB formation) by immunoelectrophoresis, Col6a1−/− mice", "format": "in vivo", "details": "Col6a1−/− diaphragm, pargyline 50 mg/kg/day i.p. 1 week"}, "Col6a1^−/− mice [3]": {"test_system": "Col6a1^−/− mice", "assay": "Pathological markers (TUNEL, IgG staining, Evans blue, myofiber CSA) in Col6a1−/− mice", "format": "in vivo", "details": "pargyline treatment", "protocol": "as §1\n(§2) Cross-sections (7 μm thick) were prepared and processed for hematoxylin and eosin (H&E) staining. For the morphometric analysis of myofiber cross sectional areas (CSAs), we counted approximately 2000 fibers per mouse for each muscle type by means of ImageJ software. At least three sections from each muscle were analyzed. TUNEL (terminal deoxynucleotidyl transferase-mediated dUTP nick end-labeling) was performed on paraffin-embedded sections (7 μm thick) using the ApopTag in situ apoptosis detection kit (Chemicon). Samples were stained with peroxidase diaminobenzidine to detect TUNEL-positive nuclei and counterstained with Hoechst 33258 to identify all nuclei, as described previously (Irwin, W. A., et al., (2003) Nat. Genet, 35, 367-371). The total number of nuclei and number of TUNEL-positive nuclei were determined in randomly selected fibers using a Zeiss Axioplan microscope equipped with a Leica DC 500 camera. Membrane permeability of skeletal muscle was directly visualized by immunohistochemical staining with IgG (Weller, B., et al., (1990) J. Neurol. Sci., 100, 9-13 and Blaauw, B., et al., (2008) Hum. Mol. Genet., 17, 3686-36%). Cryosections (10 μm thick) were incubated with anti-mouse fluorescein isothiocyanate-conjugated IgG, washed twice with PBS, mounted and visualized with an Olympus IMT-2 inverted microscope as previously described (Petronilli V., et al., (1999) Biophys. J., 76, 725-734) using excitation/emission cubes of 488/525±25 nm bandpass. Evans blue dye staining of muscles in vivo was performed by i.p. injection with 0.2 ml Evans blue (10 mg/ml in PBS; Sigma). Mice were sacrificed after 16-18 h and diaphragms were fixed with 4% paraformaldehyde overnight at 4° C. After fixation, the samples were observed by means of light microscopy.\nContractile impairment and high apoptosis rate are two specific features of skeletal muscles of Col6a1^−/− mice (Irwin, W. A., et al. (2003) Nat. Genet 35, 367-371). […] Occurrence of apoptosis was evaluated by TUNEL. […]"}, "Col6a1^−/− mice [4]": {"test_system": "Col6a1^−/− mice", "assay": "Muscle functional assessment (skinned fiber tension, gastrocnemius force, running wheel) in Col6a1−/− mice", "format": "in vivo", "protocol": "as §1\nSingle myofibers were isolated from Col6a1^−/− gastrocnemius muscle, chemically skinned as described (Rossi, R., et al., (2001) Am. J. Physiol. Cell Physiol., 281, C585-0594) and tension was measured during maximal isometric activation (pCa=4.5, T=20° C., initial sarcomere length=2.75 μm). Force measurements were performed in the left and/or right gastrocnemius muscle of anesthetized mice by electrical stimulation through the sciatic nerve, as described previously (Blaauw, B., et al., (2008) Hum. Mol. Genet., 17, 3686-3696). Voluntary exercise was evaluated by placing a wheel in the cage. Before the treatment, mice were placed in separate cages with wheel to acclimatize, then the average distance covered by each mouse in 24 h during the treatment was measured using an automatic counter.\nBiochemical and histological analyses were paralleled by functional assessment of the contractile performance of muscles in vivo and isolated muscle fibers in vitro. Single-skinned muscle fibers dissected from gastrocnemius muscle were maximally calcium-activated at optimal sarcomere length. […] After acclimatizing mice for 1 week to a wheel placed in their cage, the daily average distance was measured."}, "mdx mice [5]": {"test_system": "mdx mice", "assay": "MAO-dependent ROS formation in muscles of mdx mice", "format": "in vivo", "details": "mdx-parg mice (n = 8)", "protocol": "as §1\n(§3) DHE is oxidized by ROS, forming ethidium bromide, which emits red fluorescence when intercalates with DNA (Benov, L., et al., (1998) Free Radic. Biol. Med., 25, 826-831). […] For the detection of the fluorescence, 568±25 nm excitation and 585 nm long-pass emission filter settings were used. Data were acquired and analyzed using Metamorph software (Universal Imaging)."}, "Wild-type C57BL/10 mice": {"test_system": "Wild-type C57BL/10 mice", "assay": "ROS formation in muscles of wild-type C57BL/10 mice", "format": "in vivo", "details": "WT-parg mice (n = 8); WT-veh = 100.0", "protocol": "as §1, §3"}, "mdx mice [6]": {"test_system": "mdx mice", "assay": "Tm oxidation (DCB formation) by immunoelectrophoresis, mdx mice", "format": "in vivo", "details": "gastrocnemius and quadriceps, i.p. pargyline for 1 week", "protocol": "as §1\nProtein extracts were prepared as described (Canton, M., et al., (2006) Eur. Heart J., 27, 875-881). Immunoblotting were stained with the following antibodies: anti-Tm CH1 clone (Sigma), anti-MAO-B D-16 and anti-MAO-A H-70 clone (Santa Cruz). […] Quantitation of Tm oxidation was performed by densitometric analysis of the bands obtained under non-reducing conditions (ImageJ software). […] Data were expressed as percentage of DCB relative to vehicle-treated wild-type mice. […]"}, "mdx mice [7]": {"test_system": "mdx mice", "assay": "Pathological markers (myofiber CSA, H&E inflammation, TUNEL) in mdx mice", "format": "in vivo", "details": "pargyline treatment", "protocol": "as §1\nas §2, with “Cryosections (10 μm thick) were incubated with anti-mouse fluorescein isothiocyanate-conjugated IgG, washed twice with PBS, mounted and visualized with an Olympus IMT-2 inverted microscope as previously described (Petronilli V., et al., (1999) Biophys. J., 76, 725-734) using excitation/emission cubes of 488/525±25 nm bandpass. Evans blue dye staining of muscles in vivo was performed by i.p. injection with 0.2 ml Evans blue (10 mg/ml in PBS; Sigma). Mice were sacrificed after 16-18 h and diaphragms were fixed with 4% paraformaldehyde overnight at 4° C. After fixation, the samples were observed by means of light microscopy.” left out"}, "Col6a1^−/− myoblasts": {"test_system": "Col6a1^−/− myoblasts", "assay": "Mitochondrial ROS production (Mitotracker Red) in myoblasts under oxidative stress", "format": "cell-based, mice", "details": "Col6a1−/− diaphragm myoblasts, 100 uM pargyline; inducers 100 uM H2O2, 5 uM arachidonic acid, 0.2 uM antimycin", "protocol": "Myoblasts obtained from the diaphragm of Col6a1^−/− and Col6a1^+/+ mice were loaded with Mitotracker Red (MTR, 20 nM) to assess mitochondrial ROS production. After the first acquisition (with a fluorescence microscope), different inducers of oxidative stress (A: 100 uM H2O2, B: 5 uM arachidonic acid, C: 0.2 uM antimycin) were added and frames were collected at different intervals in the absence (filled square) and in the presence (filled triangles) of a MAO inhibitor (100 uM pargyline).\nThe extent of ROS accumulation in myoblasts obtained from diaphragm of Col6a1^−/− and Col6a1^+/+ mice was assessed. […] Remarkably, MAO inhibition reduced the presence of ROS in Col6a1^−/− myoblasts underlying the relevance of ROS production due to MAO activity."}}, "data": [{"smiles": "C#CCN(C)Cc1ccccc1", "note": "[Pargyline, N-Benzyl-N-methylprop-2-yn-1-amine]", "values": [{"measurement": "MAO activity in skeletal muscle after treatment", "setting": "MAO", "value": "abolished"}, {"measurement": "abnormal production of ROS (DHE fluorescence) in muscles", "setting": "Col6a1^−/− mice [1]", "value": "significantly decreased"}, {"measurement": "DCB content (Tm oxidation)", "setting": "Col6a1^−/− mice [2]", "value": "significantly reduced"}, {"measurement": "damaged myofibers stained by Evans blue", "setting": "Col6a1^−/− mice [3]; Col6a1−/− diaphragm", "value": "largely reduced"}, {"measurement": "number of damaged fibers positive to IgG immunohistochemical staining", "setting": "Col6a1^−/− mice [3]; Col6a1−/− diaphragm", "value": "significantly decreased"}, {"measurement": "number of TUNEL-positive nuclei", "setting": "Col6a1^−/− mice [3]; Col6a1−/− mice, diaphragm sections, vehicle 62.4±2.3, wild-type 2.7±1.2", "value": "6.9±1", "unit": "nuclei/mm^2"}, {"measurement": "myofiber cross-sectional area variability (different sizes, prevalence of small fibers)", "setting": "Col6a1^−/− mice [3]; Col6a1−/− tibialis anterior and diaphragm", "value": "markedly reduced"}, {"measurement": "normalized force of gastrocnemius muscle in vivo", "setting": "Col6a1^−/− mice [4]; Col6a1−/− mice, pargyline treatment", "value": "significantly increased"}, {"measurement": "voluntary exercise performance (running wheel, daily average distance)", "setting": "Col6a1^−/− mice [4]; Col6a1−/− mice, pargyline-treated versus untreated", "value": "significant improvement"}, {"measurement": "contractile impairment (isometric tension of single-skinned fibers)", "setting": "Col6a1^−/− mice [4]; gastrocnemius fibers of pargyline-treated Col6a1−/− mice, maximal calcium activation", "value": "disappeared"}, {"measurement": "ROS formation, Quadriceps", "setting": "mdx mice [5]; WT-veh = 100.0, mdx-veh 119.3 ± 1.3, in %", "value": "102.9 ± 1.5"}, {"measurement": "ROS formation, Gastrocnemius", "setting": "mdx mice [5]; WT-veh = 100.0, mdx-veh 127.8 ± 9.0", "value": "105.6 ± 2.2"}, {"measurement": "ROS formation, Gastrocnemius", "setting": "Wild-type C57BL/10 mice", "value": "102.8 ± 2.8"}, {"measurement": "ROS formation, Quadriceps", "setting": "Wild-type C57BL/10 mice", "value": "96.9 ± 6.2"}, {"measurement": "oxidative modifications (Tm oxidation, DCB)", "setting": "mdx mice [6]", "value": "significantly decreased"}, {"measurement": "number of TUNEL-positive nuclei (apoptosis)", "setting": "mdx mice [7]; diaphragm sections", "value": "significantly lower incidence"}, {"measurement": "myofiber CSA fiber area distribution", "setting": "mdx mice [7]; gastrocnemius muscle", "value": "normalized the fiber area distribution"}, {"measurement": "tissue inflammation in skeletal muscles (H&E)", "setting": "mdx mice [7]", "value": "reduce tissue inflammation"}, {"measurement": "susceptibility to oxidative stress / mitochondrial ROS (Mitotracker Red)", "setting": "Col6a1^−/− myoblasts", "value": "reduced"}]}]}
